# Key:
# [1] = tested on: CT26 tumor-bearing Balb/c mice, gastrocnemius; assay: Cachexia-induced muscle atrophy; type: in vivo, mouse; settings: 10 mg/kg daily oral gavage for 12 days
# Procedure: Wild type six-weeks-old male Balb/c mice obtained from the vivarium Fundación Ciencia & Vida Chile (Santiago, Chile) were used. Mice were housed in independent plastic cages in a room maintained at 25° C. with a 12-h:12-h light:dark cycle.
# 1×10^6 CT26 colon carcinoma cell line (ATCC #CRL-2638, ATCC Manassas, Va.) were injected subcutaneously in the right lower flank of each animal for induction of cachexia-induced muscle atrophy as described (Nat Commun. 2012 Jun. 12; 3:896). Non-injected animals were used as controls. At day 7 post tumor-cell injection, animals were randomized into two groups and treated with 10 mg/kg of test compound formulated in 50% Polyethylene glycol (PEG-400) in distilled water, or with vehicle (50% PEG-400 in distilled water) by daily oral gavage for 12 days.
# After 12 treatments, animals were sacrificed and gastrocnemius were removed from both hindlimbs. Muscles derived from non-tumor-bearing mice were used as control.
# Upon collection, muscles were immediately frozen in liquid nitrogen and then stored at −80° C. The frozen muscles were then homogenized with a T 10 basic ULTRA-TURRAX (IKa) in ice-cold buffer lysis (Cell Signaling 9803) and protease and phosphatase inhibitors (Roche). Lysates were sonicated for 3 min and centrifuged at 13,000 rpm for 20 minutes at 4° C. Protein concentration in supernatants was determined using BCA Protein Assay Kit (Pierce). Equal amount of protein was loaded on SDS-PAGE gels. […]
# ATF4 (Abcam), Atrogin-1 (ECM Biosciences), MuRF-1 (Santa Cruz Biotechnology) and β-actin (Sigma-Aldrich) antibodies were used as primary antibodies. […] Quantification of protein bands was done by densitometry using ImageJ software.
# Expression of ATF4 and the muscle atrophy markers, Atrogin-1 and MuRF-1, of gastrocnemius derived from control and CT26 tumor-bearing mice treated with vehicle or compound 58 are shown in FIG. 10A. […] The levels were normalized to β-actin expression and percentage was calculated as the percent relative to the expression of non-tumor-bearing mice (Control) which corresponds to 100%. […]
# MEF cells = assay: Frontotemporal dementia cellular model (progranulin knockdown in MEF cells); type: cell-based; settings: PGRN siRNA mix, 1 μM or 5 μM, 48 hours (FIG. 13)
# Procedure: MEF cells were maintained at 37° C. and 5% CO2 in DMEM supplemented with 10% fetal bovine serum (FBS), 2 mM L-glutamine, 100 U/ml penicillin, and 100 μg/ml streptomycin. After reaching 80% of confluence, cells were detached and seeded on 6-well plates in complete media at a density of 3×10^5 cells/well and allowed to recover for 48 h. To perform a knockdown expression of the progranulin protein, cells were then washed three times with PBS and treated with small interference RNA (siRNA) mix, that target progranulin (PGRN) gene (Qiagen FlexiTube siRNA mix, Cat No 1027416), according to manufacturer instructions.
# Transfection media with siRNA mix was supplemented with OPTIMEM medium alone (GRN7) or 1 μM or 5 μM compound 58 in OPTIMEM medium. Transfection media without siRNA mix (Veh) and cells cultured in OPTIMEM medium alone (Unt) were used as controls.
# After 48 hours treatment, culture media were removed and cells were lysed with SDS-PAGE lysis buffer. Lysates were transferred to 1.5 ml tubes and sonicated for 3 min. Total protein amount was quantified using BCA Protein Assay Kit (Pierce). Equal amount of proteins (30 μg) was loaded on SDS-PAGE gels. […]
# PGRN (R&D Systems) and β-actin (Sigma-Aldrich) antibodies were used as primary antibodies. […] Quantification of protein bands was done by densitometry using ImageJ software. […]
smiles,measurement,setting,value
"O=C(NN1CCN(C[C@@H](O)COc2ccc(Cl)c(F)c2)CC1)c1ccc2cc(Cl)ccc2n1 [Compound 58, (R)-6-chloro-N-(4-(3-(4-chloro-3-fluorophenoxy)-2-hydroxypropyl)piperazin-1-yl)quinoline-2-carboxamide]",ATF4 expression in gastrocnemius,[1]; vs vehicle (FIG. 10B),reduction
same,Atrogin-1 expression in gastrocnemius,[1]; vs vehicle (FIG. 10C),reduction
same,MuRF-1 expression in gastrocnemius,[1]; vs vehicle (FIG. 10D),reduction
same,expression of PGRN (progranulin) in siRNA knockdown condition,MEF cells,increased expression of progranulin
